Data published in patent US20150010644A1, “OXYGENATION OF THE MUCOSAL BARRIER BY ENTERAL ARTIFICIAL BLOOD TO PREVENT HYPOXIC BREAKDOWN OF THE MUCOSAL BARRIER” (THE REGENTS OF THE UNIVERSITY OF CALIFORNIA, priority 2011, published 2015).

Experiments:
[1] = tested on: trypsin activity in the intestinal wall; assay: In-situ zymography for trypsin activity in jejunal cryosections, rat splanchnic arterial occlusion (SAO) model; format: in vivo; settings: lumenal injection 30 min prior
Procedure: (§1) Male Wistar rats (250-300 g, Harlan Sprague Dawley Inc, Indianapolis, Ind.) were randomly assigned to each group (n=4 per group). Rats were kept on solid food restriction for 12 hours prior to surgery with water ad libitum. […] Sham groups were treated the same with the arteries separated but not ligated.
Control groups: Animals with saline injection into the lumen of the intestine, 3 ml/100 g Body Weight (BW), 30 min prior to SHAM or SAO surgery.
(§2) Perfluorocarbon groups: Perfluorodecalin (PFC) (Sigma-Aldrich, St Louis, Mo.) with oxygen, previously bubbled into the solution for 10 min, was injected into the lumen of the intestine 30 min prior SHAM or SAO surgery (SHAM+PFC+O2, SAO+PFC+O2). PFC without oxygen bubbled into the solution was injected 30 min prior SHAM or SAO surgery (SHAM+PFC, SAO+PFC).
ATP-MgCl2 groups: ATP-MgCl2 (Sigma-Aldrich), 25 mg/kg BW was injected in the lumen of the intestine 30 min prior to SHAM or SAO surgery (SHAM+ATP, SAO+ATP). […]
After 30 min SAO or sham surgery, the animals were euthanized (Beuthanasia®; 0.22 ml/kg BW, IV).
(§3) Tissue cryosections: After euthanasia, jejunal sections (˜1 cm in length) were excised without removal of lumenal contents and suspended in Tissue-Tek O.C.T. Compound (Sakura Finetek, Torrance, Calif.), snap frozen in isopentane/liquid nitrogen, and stored at −80° C. for analysis. Cryosections (5 μm thickness) along the longitudinal axis of the villi were used throughout all experiments. Cryosections were fixed in 10% formalin solution and processed in a non-blinded fashion.
In-situ tissue zymography: In-situ zymography for trypsin activity in cryosections was assessed by measurement of fluorescence resulting from the proteolytic cleavage of the substrate (1 mM, Na-benzoyl-L-arginine-7-amido-methylcoumarin hydrochloride; Sigma-Aldrich) as described elsewhere with propidium iodine counterstaining (Sigma-Aldrich) (9). Slides were observed under an inverted microscope (20× and 60× objectives).

[2] = tested on: lectin staining (carbohydrate portion of mucin); assay: Lectin fluorescent staining (carbohydrate portion of mucin) of jejunal sections, rat SAO model; format: in vivo; settings: SAO 30 min; lumenal injection 30 min prior
Procedure: as §1, §2
(§4) ATP-MgCl2 groups: ATP-MgCl2 (Sigma-Aldrich), 25 mg/kg BW was injected in the lumen of the intestine 30 min prior to SHAM or SAO surgery (SHAM+ATP, SAO+ATP).
(§5) pH groups: Acidic saline (pH 5.5) injected in the lumen of the intestine 30 min prior SHAM surgery or HEPES buffer (20 mM) injected into the lumen of the intestine 30 min prior to SHAM or SAO surgery.
(§6) Free radicals groups: The hydroxyl radical scavenger, dimethylthiourea (DMTU, Sigma-Aldrich; 2.0 mg/g BW) was injected in the lumen of the intestine 30 min prior to SAO (SAO+DMTU).
as §3
(§7) Mucin and lectin staining: The simultaneous visualization of lectins and mucin was carried out using Lectin GS-II from Griffonia simplicifolia, Alexa Fluor® 594 Conjugate (EnzChek®, Invitrogen, Carlsbad, Calif.) and specific antibody for mucin2 with FITC secondary antibody 1:10000 (Santa Cruz Biotechnology) and nuclei counterstaining with DAPI. Sections were observed on an inverted microscope (20× objective) using the appropriate fluorescent filters.

mucin13 = assay: Western blot for mucin13 of intestine homogenates, rat SAO model; format: in vivo; settings: SAO 30 min, lumenal injection 30 min prior
Procedure: as §1, §2, §4, §5, §6
(§8) Homogenates of intestine and lumenal contents: Jejunal segments were excised without removal of lumenal contents. For enzyme activity measurements, segments of intestine were homogenized with CelLytic™ (Sigma-Aldrich) without addition of protease inhibitors. For Western blot assays the intestine segments were homogenized as above in the presence of protease inhibitors (5 mM EDTA, 5 mM N-Ethylmaleimide, 25 mM iodoacetamide, 5 mM benzamidine, 300 mM acarbose, 5 mM 6-aminocaproic acid, 1 mM protease inhibitor cocktail, (Sigma-Aldrich). In separate experiments the small intestine of sham animals was excised, and the lumenal contents were flushed with 20 ml saline. Homogenates or lumenal contents were centrifuged (16,000 g for 15 min at 4° C.), the supernatant was collected and protein concentration was assessed with the bicinchoninic acid protein assay (Thermo Scientific).
(§9) Western blot: 20 μg of tissue homogenate were separated by SDS-PAGE. Membranes were incubated with primary antibodies as follows: mucin2, mucin13 and trypsin 1:1000 (Santa Cruz Biotechnology), pancreatic amylase 1:1000 (GeneTex, San Antonio, Tex.), intra- and extra-cellular domains of E-cadherin and TLR4 1:1000 (Abcam), intracellular domain of TLR4 1:1000 (Invitrogen). Secondary antibodies were diluted 1:20000 (Santa Cruz Biotechnology) and detected with Super Signal West Pico (Thermo Scientific). The exposed x-ray films were scanned and label intensity was measured using digital gel analysis (NIH ImageJ software).

intestinal villi hypoxia = assay: Hypoxia staining (pimonidazole, Hypoxyprobe-1) of intestinal villi, rat SAO model; format: in vivo; settings: SAO 30 min; lumenal injection 30 min prior
Procedure: as §1, §2, §4, §5, §6
Hypoxia staining: In separate experiments tissue hypoxia was detected with Hypoxyprobe™-1 Kit (Natural Pharmacia International, Burlington, Mass., USA). This method utilizes a small molecular marker, pimonidazole, which after intravenous injection forms adducts with thiol containing proteins only in oxygen-starved cells. After general anesthesia as described above, pimonidazole-HCl (6 mg/100 g) was injected intravenously 30 min before SAO or SHAM; at 30 min the animal was euthanized and the jejuna section removed, embedded in O.C.T and frozen in liquid nitrogen. Then cryosections were immunostained using a rabbit antibody that binds to protein adducts of pimonidazole in hypoxic cells.

shock = settings: ATP infusion before and during shock, given prior to hemorrhage; cited from earlier work
[3] = tested on: MDA equivalents (TBARS) in jejunal homogenates; assay: Thiobarbituric Acid Reactive Substances (TBARS) assay, rat SAO model; format: in vivo; settings: SAO 30 min; lumenal injection 30 min prior
Procedure: as §1, §2, §4
pH groups: Acidic saline (pH 5.5) injected in the lumen of the intestine 30 min prior SHAM surgery or HEPES buffer (20 mM) injected into the lumen of the intestine 30 min prior to SHAM or SAO surgery. […]
TBARS assay: Thiobarbituric Acid Reactive Substances (TBARS) was measured using the TBARS assay kit (Zeptometrix, Buffalo, N.Y.) according to manufacturer's protocol. […] Samples were centrifuged at 3000 rpm for 15 min and the supernatant were read at 530/550 (Ex/Em).

[4] = tested on: ATP concentration in intestine homogenates; assay: ATP assay in intestine homogenates, rat SAO model; format: in vivo; settings: lumenal injection 30 min prior
Procedure: as §1, §2, §4, §5, §6
ATP assay: ATP concentrations in intestine homogenates were measured using ATP fluorometirc assay kit (BioVision, Mountain View, Calif.) according to manufacturer's protocol. Briefly jejuna sections were homogenized with perchloric acid (BioVision), centrifuged at 15,000×G for 5 min at 4° C. Samples were mixed with ATP reaction mix, incubated for 30 min protected from light and the fluorescence was measured with 535/587 (Ex/Em).

mucin2 [5] = assay: Mucin2 fluorescent staining of jejunal sections, rat SAO model; format: in vivo; settings: SAO 30 min, lumenal injection 30 min prior
Procedure: as §1, §2, §4, §5, §6, §3, §7

mucin2 [6] = assay: Western blot for mucin2 of intestine homogenates, rat SAO model; format: in vivo; settings: SAO 30 min, lumenal injection 30 min prior
Procedure: as §1, §2, §4, §5, §6, §8, §9

Substance: ATP-MgCl2
- trypsin activity in the intestinal wall ([1]; SAO 30 min): Low levels of trypsin activity
- trypsin activity in the intestinal wall ([1]; SAO 30 min, listed as ATP): less trypsin activity in the wall as compared to the ischemic group with only lumenal saline
- trypsin activity in the intestinal wall ([1]; SHAM surgery): minimal trypsin activity
- lectin staining levels [2]: significantly lower as compared to the SHAM and SHAM-ATP-MgCl2
- mucin13 protein levels / 17 kDa fragment (Western blot) (mucin13): the same mucin2 and mucin13 protein levels as the sham
- mucin13 protein levels / 17 kDa fragment (Western blot) (mucin13; listed as ATP): preservation of mucin2 staining as well as protein levels of mucin2 and mucin13
- hypoxia staining levels (intestinal villi hypoxia): significantly high levels of hypoxia staining as compared to SHAM groups
- survival of animals (shock): improves the survival of animals
- levels of MDA equivalents (TBARS) [3]: on average lower levels of MDA equivalents compared to SHAM or SAO, but they were not significant
- ATP concentration in intestinal tissue homogenates ([4]; SAO 30 min): significantly increased the ATP concentration
- ATP concentration in intestinal tissue homogenates ([4]; SHAM surgery): significantly increased the ATP concentration
- mucin2 staining levels (mucin2 [5]): significantly lower as compared to the SHAM group with saline but was not statistically different from SHAM-ATP-MgCl2
- mucin2 staining levels (mucin2 [5]; listed as ATP): preservation of mucin2 staining
- mucin2 protein levels (relative density, Western blot) (mucin2 [6]): the same mucin2 and mucin13 protein levels as the sham
- mucin2 protein levels (relative density, Western blot) (mucin2 [6]; listed as ATP): preservation of mucin2 staining as well as protein levels of mucin2 and mucin13
